Assay results taken from US11970463B2, “Compounds and their use” (ASTRAZENECA AB, priority 2021, dated 2024).
Values after ≈ are worked out from the molar mass of the structure shown. Read-outs that look alike come from different tables or passages of the source.

Experiments:
Human NLRP3 [1] = biological target: T1, Human NLRP3 (Homo sapiens (Human), UniProt Q96P20); assay: Human NLRP3 speck formation assay (Test A), nigericin triggered ASC-speck formation in ASC-GFP reporter monocytes
hERG = hERG (Homo sapiens (Human), UniProt Q12809); assay: hERG assay (Test D), SyncroPatch 384PE patch clamp, hERG-expressing CHO cells; type: cell-based; conditions: rt
IL-1β production = assay: LPS/ATP test in mice, peritoneal IL-1β by ELISA; type: in vivo, BALB/cAJcl mice; conditions: Mus musculus, LPS/ATP i.p.; for inhibition at 1 mg/kg: 1 mg/kg orally; for inhibition at 3 mg/kg: 3 mg/kg orally
Human NLRP3 [2] = biological target: T1, Human NLRP3; conditions: Test C IC50, IL-1β release, THP-1 cells, LPS 2 μg/mL 24 h, BzATP 1 mM
Human NLRP3 [3] = biological target: T1, Human NLRP3
[4] = Solubility (Test F), McIlvaine buffer pH 6.5; type: physicochemical; conditions: 25 °C, pH 6.5, aqueous buffer, thermodynamic from solid, McIlvaine buffer pH 6.5, 25° C., 24 to 72 h, theoretical maximum 200 μM
Solubility (Test E) = type: physicochemical
[5] = disodium hydrogenphosphate-citric acid (McIlvaine) buffer

Sequence of hERG (Q12809 whole entry): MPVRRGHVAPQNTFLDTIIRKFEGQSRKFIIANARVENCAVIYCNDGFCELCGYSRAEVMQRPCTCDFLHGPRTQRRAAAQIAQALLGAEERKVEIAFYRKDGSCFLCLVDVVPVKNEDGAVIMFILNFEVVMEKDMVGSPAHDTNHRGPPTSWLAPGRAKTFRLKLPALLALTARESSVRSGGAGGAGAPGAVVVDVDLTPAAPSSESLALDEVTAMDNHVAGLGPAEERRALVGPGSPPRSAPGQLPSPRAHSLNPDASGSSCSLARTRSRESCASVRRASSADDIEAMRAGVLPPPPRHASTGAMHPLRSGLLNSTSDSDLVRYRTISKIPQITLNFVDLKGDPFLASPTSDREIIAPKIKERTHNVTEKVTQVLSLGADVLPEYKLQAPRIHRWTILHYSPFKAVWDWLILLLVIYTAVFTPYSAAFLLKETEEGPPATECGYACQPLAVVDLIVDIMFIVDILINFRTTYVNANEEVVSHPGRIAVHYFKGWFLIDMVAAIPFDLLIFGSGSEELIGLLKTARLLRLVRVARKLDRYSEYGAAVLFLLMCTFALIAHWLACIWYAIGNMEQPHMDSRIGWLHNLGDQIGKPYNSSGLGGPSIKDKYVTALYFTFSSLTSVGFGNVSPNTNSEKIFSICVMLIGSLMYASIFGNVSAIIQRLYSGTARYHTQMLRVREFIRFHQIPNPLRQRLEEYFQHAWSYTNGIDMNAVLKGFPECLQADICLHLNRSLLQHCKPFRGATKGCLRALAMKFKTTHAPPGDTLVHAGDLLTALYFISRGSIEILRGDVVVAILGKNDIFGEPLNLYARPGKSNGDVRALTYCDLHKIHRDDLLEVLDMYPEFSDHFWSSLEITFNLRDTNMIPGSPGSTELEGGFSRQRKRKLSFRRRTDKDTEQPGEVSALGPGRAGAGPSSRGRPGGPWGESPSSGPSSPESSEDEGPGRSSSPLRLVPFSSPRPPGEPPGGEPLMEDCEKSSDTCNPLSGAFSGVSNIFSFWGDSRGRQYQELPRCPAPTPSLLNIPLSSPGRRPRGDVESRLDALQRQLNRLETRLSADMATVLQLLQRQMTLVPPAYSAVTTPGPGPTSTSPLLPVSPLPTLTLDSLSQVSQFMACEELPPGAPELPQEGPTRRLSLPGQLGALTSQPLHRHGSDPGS
T1 sequence (Q96P20 whole entry): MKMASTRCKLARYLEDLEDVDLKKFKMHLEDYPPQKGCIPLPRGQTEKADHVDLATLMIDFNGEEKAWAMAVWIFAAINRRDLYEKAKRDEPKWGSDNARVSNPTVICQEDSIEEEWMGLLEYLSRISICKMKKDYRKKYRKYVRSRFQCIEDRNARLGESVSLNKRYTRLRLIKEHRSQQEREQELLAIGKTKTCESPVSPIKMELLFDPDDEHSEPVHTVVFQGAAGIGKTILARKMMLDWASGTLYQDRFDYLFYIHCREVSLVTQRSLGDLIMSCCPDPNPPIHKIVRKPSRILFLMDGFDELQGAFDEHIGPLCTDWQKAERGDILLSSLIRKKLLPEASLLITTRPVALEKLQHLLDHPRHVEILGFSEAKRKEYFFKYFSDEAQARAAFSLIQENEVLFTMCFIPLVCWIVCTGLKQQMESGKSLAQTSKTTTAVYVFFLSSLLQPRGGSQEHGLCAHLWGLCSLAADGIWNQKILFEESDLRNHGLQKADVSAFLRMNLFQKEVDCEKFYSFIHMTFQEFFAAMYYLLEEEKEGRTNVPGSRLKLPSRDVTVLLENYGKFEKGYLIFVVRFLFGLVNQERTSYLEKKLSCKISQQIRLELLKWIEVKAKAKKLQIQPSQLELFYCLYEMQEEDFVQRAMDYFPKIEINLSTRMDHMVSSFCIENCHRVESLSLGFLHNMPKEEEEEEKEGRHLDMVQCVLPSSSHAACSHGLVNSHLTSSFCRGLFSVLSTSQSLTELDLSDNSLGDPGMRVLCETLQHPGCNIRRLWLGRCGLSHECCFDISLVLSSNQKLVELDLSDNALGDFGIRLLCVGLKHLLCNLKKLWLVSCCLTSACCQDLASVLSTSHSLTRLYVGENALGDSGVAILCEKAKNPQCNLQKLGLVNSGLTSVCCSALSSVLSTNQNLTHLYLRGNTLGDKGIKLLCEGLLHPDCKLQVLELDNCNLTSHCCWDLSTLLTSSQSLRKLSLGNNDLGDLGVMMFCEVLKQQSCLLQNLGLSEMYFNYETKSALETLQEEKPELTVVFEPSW

| SMILES | EC50 (Human NLRP3 [1]) [nM] | IC50 (hERG) [nM] | inhibition at 1 mg/kg (IL-1β production) [%] | inhibition at 3 mg/kg (IL-1β production) [%] | IC50 (Human NLRP3 [2]) [nM] | IC50 (Human NLRP3 [3]) [nM] | solubility [4, 5] [µg/mL] | solubility (Solubility (Test E)) [µM] | solubility [4] [µg/mL] |
| --- | --- | --- | --- | --- | --- | --- | --- | --- | --- |
| OC[C@@H](O)CNc1nnc(-c2c(O)cc(C(F)(F)F)cc2F)c2ccccc12 [Example 7, (2S)-3-[[4-[2-fluoro-6-hydroxy-4-(trifluoromethyl)phenyl]phthalazin-1-yl]amino]propane-1,2-diol] | 180 | > 40000 | 46 | 95 | 22 | 47 | 70.3 (≈ 177 µM) | 582 (≈ 231 µg/mL) |  |
| OC[C@@H](O)CNc1nnc(-c2c(O)cc(Cl)cc2F)c2ccccc12 [Example 9, (2S)-3-[[4-(4-chloro-2-fluoro-6-hydroxy-phenyl)phthalazin-1-yl]amino]propane-1,2-diol] | 164 |  |  | 77 | 11 |  | 67.3 (≈ 185 µM) |  |  |
| Cc1ccc2c(-c3ccc(C(F)(F)F)cc3O)nnc(NC[C@H](O)CO)c2c1 [Example 14, (2S)-3-[[4-[2-hydroxy-4-(trifluoromethyl)phenyl]-7-methyl-phthalazin-1-yl]amino]propane-1,2-diol] | 18 |  |  | 75 | 5 |  | 56.3 (≈ 143 µM) | 135 (≈ 53.1 µg/mL) |  |
| Oc1cc(C(F)(F)F)ccc1-c1nnc(N[C@@H]2CC[C@@H](O)C2)c2ccccc12 [Example 16, 2-[4-[[(1R,3R)-3-hydroxycyclopentyl]amino]phthalazin-1-yl]-5-(trifluoromethyl)phenol] | 54 | 22000 |  |  | 20 | 30 | 23.9 (≈ 61.4 µM) |  |  |
| Oc1cc(C(F)(F)F)ccc1-c1nnc(N[C@@H]2CCC[C@@H]2O)c2ccccc12 [Example 19, 2-[4-[[(1R,2S)-2-hydroxycyclopentyl]amino]phthalazin-1-yl]-5-(trifluoromethyl)phenol] | 26 | 23000 |  |  | 5 | 20 | 10.6 (≈ 27.2 µM) | 171 (≈ 66.6 µg/mL) |  |
| Oc1cc(C(F)(F)F)ccc1-c1nnc(N[C@H]2CCC[C@H]2O)c2ccccc12 [Example 21, 2-[4-[[(1S,2R)-2-hydroxycyclopentyl]amino]phthalazin-1-yl]-5-(trifluoromethyl)phenol] | 105 | 19000 |  |  | 8 | 36 | 14.5 (≈ 37.2 µM) | 71 (≈ 27.6 µg/mL) |  |
| Oc1cc(C(F)(F)F)ccc1-c1nnc(N[C@@H]2CCCC[C@@H]2O)c2ccccc12 [Example 23, 2-[4-[[(1R,2S)-2-hydroxycyclohexyl]amino]phthalazin-1-yl]-5-(trifluoromethyl)phenol] | 156 | 21000 |  |  | 14 | 31 | 4.4 (≈ 10.9 µM) | 0.4 (≈ 0.161 µg/mL) |  |
| Oc1cc(C(F)(F)F)ccc1-c1nnc(N[C@@H]2CCCC[C@H]2O)c2ccccc12 [Example 24, 2-[4-[[(1R,2R)-2-hydroxycyclohexyl]amino]phthalazin-1-yl]-5-(trifluoromethyl)phenol] | 38 | 17000 |  |  | 5 | 9 | 7.9 (≈ 19.6 µM) | 148 (≈ 59.7 µg/mL) |  |
| Oc1cc(C(F)(F)F)ccc1-c1nnc(N[C@H]2CCCC[C@H]2O)c2ccccc12 [Example 25, 2-[4-[[(1S,2R)-2-hydroxycyclohexyl]amino]phthalazin-1-yl]-5-(trifluoromethyl)phenol] | 80 | 7400 |  |  | 8 | 36 | 1.8 (≈ 4.46 µM) | 3 (≈ 1.21 µg/mL) |  |
| C[C@]1(O)C[C@@H](Nc2nnc(-c3ccc(C(F)(F)F)cc3O)c3ccccc23)C1 [Example 37, 2-(4-(((1s,3s)-3-hydroxy-3-methylcyclobutyl)amino)phthalazin-1-yl)-5-(trifluoromethyl)phenol] | 339 | 29000 |  |  |  | 32 |  |  |  |
| C[C@]1(O)CC[C@@H](Nc2nnc(-c3ccc(C(F)(F)F)cc3O)c3ccncc23)C1 [Example 39, 2-[4-[[(1R,3S)-3-hydroxy-3-methyl-cyclopentyl]amino]pyrido[3,4-d]pyridazin-1-yl]-5-(trifluoromethyl)phenol] | 59 |  |  | 58 | 7 | 18 | 10.2 (≈ 25.2 µM) | 48 (≈ 19.4 µg/mL) |  |
| Oc1cc(C(F)(F)F)ccc1-c1nnc(N[C@@H]2CCC[C@H](O)C2)c2cnccc12 [Example 41, 2-[4-[[(1R,3S)-3-hydroxycyclohexyl]amino]pyrido[3,4-d]pyridazin-1-yl]-5-(trifluoromethyl)phenol] |  |  | 94 | 99 |  |  | 8.6 (≈ 21.3 µM) |  |  |
| Oc1cc(Cl)cc(F)c1-c1nnc(N[C@@H]2CCC[C@H](O)C2)c2cnccc12 [Example 46, 5-chloro-3-fluoro-2-[4-[[(1R,3S)-3-hydroxycyclohexyl]amino]pyrido[3,4-d]pyridazin-1-yl]phenol] | 37 | > 40000 | 23 | 65 | 3 |  | > 77.8 | 941 (≈ 366 µg/mL) |  |
| Oc1cc(OC(F)(F)F)ccc1-c1nnc(N[C@@H]2CCC[C@H](O)C2)c2cnccc12 [Example 48, 2-[4-[[(1R,3S)-3-hydroxycyclohexyl]amino]pyrido[3,4-d]pyridazin-1-yl]-5-(trifluoromethoxy)phenol] | 29 | > 40000 |  |  | 4 | 14 | 80.4 (≈ 191 µM) | 326 (≈ 137 µg/mL) |  |
| Oc1cc(C(F)(F)F)c(F)cc1-c1nnc(N[C@@H]2CCC[C@H](O)C2)c2cnccc12 [Example 53, 4-fluoro-2-[4-[[(1R,3S)-3-hydroxycyclohexyl]amino]pyrido[3,4-d]pyridazin-1-yl]-5-(trifluoromethyl)phenol] |  |  |  | 65 | 7 |  | 62.5 (≈ 148 µM) |  |  |
| Oc1cc(C(F)(F)F)c(F)cc1-c1nnc(N[C@@H]2CCCC[C@H]2O)c2cnccc12 [Example 54, 4-fluoro-2-[4-[[(1R,2R)-2-hydroxycyclohexyl]amino]pyrido[3,4-d]pyridazin-1-yl]-5-(trifluoromethyl)phenol] |  |  |  | 55 | 4 |  | 45.7 (≈ 108 µM) |  |  |
| Oc1cc(C(F)(F)F)cc(F)c1-c1nnc(N[C@@H]2CCCC[C@H]2O)c2cnccc12 [Example 55, 3-fluoro-2-[4-[[(1R,2R)-2-hydroxycyclohexyl]amino]pyrido[3,4-d]pyridazin-1-yl]-5-(trifluoromethyl)phenol] | 38 | > 40000 |  | 91 | 6 |  | 8.8 (≈ 20.8 µM) | 529 (≈ 223 µg/mL) |  |
| Oc1cc(Cl)cc(F)c1-c1nnc(N[C@@H]2CCCC[C@H]2O)c2cnccc12 [Example 57, 5-chloro-3-fluoro-2-[4-[[(1R,2R)-2-hydroxycyclohexyl]amino]pyrido[3,4-d]pyridazin-1-yl]phenol] | 17 | > 40000 | 42 | 87 | 5 |  | 36.9 (≈ 94.9 µM) | 596 (≈ 232 µg/mL) |  |
| C[C@@]1(O)CCC[C@@H](Nc2nnc(-c3ccc(C(F)(F)F)cc3O)c3ccncc23)C1 [Example 61, 2-[4-[[(1R,3R)-3-hydroxy-3-methyl-cyclohexyl]amino]pyrido[3,4-d]pyridazin-1-yl]-5-(trifluoromethyl)phenol] | 29 | 34000 |  | 97 | 7 |  |  | 389 (≈ 163 µg/mL) | 64 (≈ 153 µM) |
| C[C@]1(O)CCC[C@@H](Nc2nnc(-c3ccc(C(F)(F)F)cc3O)c3ccncc23)C1 [Example 62, 2-[4-[[(1R,3S)-3-hydroxy-3-methyl-cyclohexyl]amino]pyrido[3,4-d]pyridazin-1-yl]-5-(trifluoromethyl)phenol] | 60 | > 40000 |  | 71 | 6 |  | 25.7 (≈ 61.4 µM) | 120 (≈ 50.2 µg/mL) |  |
| CC(C)(O)CNc1nnc(-c2c(O)cc(C(F)(F)F)cc2F)c2ccncc12 [Example 74, 3-fluoro-2-[4-[(2-hydroxy-2-methyl-propyl)amino]pyrido[3,4-d]pyridazin-1-yl]-5-(trifluoromethyl)phenol] | 204 |  |  | 68 | 18 |  | 12.1 (≈ 30.5 µM) | 17 (≈ 6.74 µg/mL) |  |
| Oc1cc(F)ccc1-c1nnc(N[C@@H]2CCCC[C@H]2O)c2cnccc12 [Example 75, 5-fluoro-2-(4-(((1R,2R)-2-hydroxycyclohexyl)amino)pyrido[3,4-d]pyridazin-1-yl)phenol] | 124 | > 40000 |  |  |  | 10 |  |  |  |
| Oc1cc(C(F)(F)F)ccc1-c1nnc(N[C@H]2CC[C@@H](O)C2)c2cnccc12 [Example 83, 2-[4-[[(1S,3R)-3-hydroxycyclopentyl]amino]pyrido[3,4-d]pyridazin-1-yl]-5-(trifluoromethyl)phenol] | 129 | > 40000 |  |  | 20 | 38 | 4.7 (≈ 12 µM) | 47 (≈ 18.3 µg/mL) |  |
